Measurements published in ChEMBL document CHEMBL4765389, “Antimicrobial and anti-inflammatory activities of short dodecapeptides derived from duck cathelicidin: Plausible mechanism of bactericidal action and endotoxin neutralization” (Eur J Med Chem, 2020).
In brackets after ≈: the same amount, converted by molar mass. Activity calls are given as the source filed them. The calls are words filed in the database; no cut-off is given here. Bridge positions count the residues as written; N and C are the ends. Square brackets hold non-standard residues; d marks the D form. Peptide text beside a SMILES is read from it. * marks the point of attachment. X1 = CC[C@H](C)CCCCC(=O)*; Dab = NCC[C@H](N)C(=O)O

Experiments:
Escherichia coli [1] = assay: Bacteriostatic activity against Escherichia coli KCTC 1682 assessed as reduction in colony forming unit at 0.5 times MIC measured for 24 hrs by time kill assay; format: functional
Escherichia coli [2] = assay: Bacteriostatic activity against Escherichia coli KCTC 1682 assessed as reduction in colony forming unit at 0.5 times MIC measured for 12 hrs by time kill assay; format: functional, organism-based
Lipopolysaccharide (LPS) [3] = assay: Inhibition of Escherichia coli O111:B4 LPS aggregation assessed as increase in FITC-LPS dissociation at 100 uM by spectrofluorometry
RAW264.7 [4] = assay: Antiinflammatory activity in mouse RAW264.7 cells assessed as suppression of LPS binding by measuring LPS-FITC aggregation at 10 uM pretreated with LPS for 1 hr followed by compound addition and measured after 30 mins by flowcytometry analysis (reference value: 67.93 %); format: functional; settings: 0.5 h
RAW264.7 [5] = assay: Antiinflammatory activity in mouse RAW264.7 cells assessed as neutralization of LPS binding by measuring LPS-FITC aggregation at 10 uM pretreated with LPS for 1 hr followed by compound addition and measured after 1 hr by flowcytometry analysis (reference value: 48.12 %); format: functional
[6] = Cytotoxicity against mouse RAW264.7 cells assessed as reduction in cell viability at 20 uM incubated for 24 hrs by MTT assay; format: cell-based; settings: read-out: INH
NIH3T3 [7] = assay: (§1) Cytotoxicity against mouse NIH/3T3 cells assessed as reduction in cell viability at 20 uM incubated for 24 hrs by MTT assay; format: cell-based; settings: nih3t3, 24 h, 20 µM
RAW264.7 [8] = assay: Cytotoxicity against mouse RAW264.7 cells assessed as reduction in cell viability at 1.25 to 80 uM incubated for 24 hrs by MTT assay; format: cell-based; settings: raw264.7, 24 h, dose 1.25-80 µM
NIH3T3 [9] = assay: Cytotoxicity against mouse NIH/3T3 cells assessed as reduction in cell viability at 1.25 to 80 uM incubated for 24 hrs by MTT assay; format: cell-based; settings: nih3t3, 24 h, dose 1.25-80 µM
Enterococcus faecium = assay: Antibacterial activity against vancomycin-resistant Enterococcus faecium ATCC 51559 assessed as reduction in bacterial growth incubated for 24 hrs by CLSI based broth dilution method; format: functional; settings: read-out: MIC100
[10] = Antibacterial activity against multidrug-resistant Pseudomonas aeruginosa CCARM 2095 assessed as reduction in bacterial growth incubated for 24 hrs by CLSI based broth dilution method; format: functional; settings: read-out: MIC100
[11] = Antibacterial activity against multidrug-resistant Pseudomonas aeruginosa CCARM 2109 assessed as reduction in bacterial growth incubated for 24 hrs by CLSI based broth dilution method; format: functional; settings: read-out: MIC100
Candida albicans [12] = assay: Antifungal activity against Candida albicans KCTC 7965 assessed as reduction in fungal growth incubated for 24 hrs by CLSI based broth dilution method; format: functional; settings: read-out: MIC100
Candida albicans [13] = assay: Antifungal activity against Candida albicans KCTC 7121 assessed as reduction in fungal growth incubated for 24 hrs by CLSI based broth dilution method; format: functional; settings: read-out: MIC100
Erythrocyte [14] = assay: Hemolytic activity in sheep RBC assessed as reduction in hemoglobin incubated for 1 hr; format: ADME, cell-based, Ovis aries
Bacteria [15] = assay: Antibacterial activity against Gram positive bacteria assessed as reduction in bacterial growth incubated for 24 hrs by CLSI based broth dilution method; format: functional; settings: read-out: MIC100
Bacteria [16] = assay: Antibacterial activity against Gram negative bacteria assessed as reduction in bacterial growth incubated for 24 hrs by CLSI based broth dilution method; format: functional; settings: read-out: MIC100
Saccharomyces cerevisiae = assay: Antifungal activity against yeast assessed as reduction in fungal growth incubated for 24 hrs by CLSI based broth dilution method; format: functional; settings: read-out: MIC100
[17] = Therapeutic index, ratio of HC10 for sheep RBC to geometric mean MIC for gram positive bacteria; format: toxicity; settings: sheep red blood cells, read-out: TI
[18] = Therapeutic index, ratio of HC10 for sheep RBC to geometric mean MIC for gram negative bacteria; format: toxicity; settings: sheep red blood cells, read-out: TI
[19] = Therapeutic index, ratio of HC10 for sheep RBC to geometric mean MIC for yeast; format: toxicity; settings: sheep red blood cells, read-out: TI
Cell membrane [20] = assay: Induction of cell membrane permeability in Staphylococcus aureus KCTC 1621 assessed as cytoplasmic membrane depolarization at 2 times MIC by DiSC3-5 dye based spectrofluorometry; format: subcellular
Cell membrane [21] = assay: Induction of cell membrane permeability in Staphylococcus aureus KCTC 1621 assessed as cytoplasmic membrane depolarization at 2 times MIC by SYTOX dye based fluorescence assay; format: subcellular
Cell membrane [22] = assay: Induction of cell membrane permeability in Escherichia coli KCTC 1682 assessed as […] at 2 times MIC by ONPG dye based spectrophotometry; format: subcellular
Cell membrane [23] = assay: Induction of cell membrane permeability in Escherichia coli KCTC 1682 assessed as cytoplasmic membrane […] fluorescent signals at 2 times MIC measured after 1 hr by propidium iodide dye based flow cytometry analysis (reference value: 9.8 %); format: subcellular
Erythrocyte [24] = assay: Hemolytic activity in sheep RBC assessed as reduction in hemoglobin at 256 uM incubated for 1 hr; format: ADME, cell-based, Ovis aries
[25] = Hemolytic activity in sheep RBC assessed as reduction in hemoglobin at 64 uM incubated for 1 hr; format: ADME, cell-based, Ovis aries, Erythrocyte; settings: sheep red blood cells (erythrocytes), read-out: Activity
[26] = Cytotoxicity against mouse RAW264.7 cells assessed as reduction in cell viability at 10 uM incubated for 24 hrs by MTT assay; format: cell-based; settings: read-out: INH
[27] = Cytotoxicity against mouse NIH/3T3 cells assessed as reduction in cell viability at 10 uM incubated for 24 hrs by MTT assay; format: cell-based, NIH3T3; settings: read-out: INH
[28] = as §1; format: cell-based, NIH3T3; settings: NIH/3T3 cells, read-out: INH
Staphylococcus aureus [29] = assay: Antibacterial activity against Staphylococcus aureus KCTC 1621 assessed as reduction in bacterial growth incubated for 24 hrs by CLSI based broth dilution method; format: functional; settings: read-out: MIC100
[30] = test system: Staphylococcus epidermidis; assay: Antibacterial activity against Staphylococcus epidermidis KCTC 1917 assessed as reduction in bacterial growth incubated for 24 hrs by CLSI based broth dilution method; format: functional; settings: read-out: MIC100
Bacillus subtilis = assay: Antibacterial activity against Bacillus subtilis KCTC 3068 assessed as reduction in bacterial growth incubated for 24 hrs by CLSI based broth dilution method; format: functional; settings: read-out: MIC100
Staphylococcus aureus [31] = assay: Antibacterial activity against methicillin-resistant Staphylococcus aureus CCARM 3089 assessed as reduction in bacterial growth incubated for 24 hrs by CLSI based broth dilution method; format: functional; settings: read-out: MIC100
Staphylococcus aureus [32] = assay: Antibacterial activity against methicillin-resistant Staphylococcus aureus CCARM 3090 assessed as reduction in bacterial growth incubated for 24 hrs by CLSI based broth dilution method; format: functional; settings: read-out: MIC100
Staphylococcus aureus [33] = assay: Antibacterial activity against methicillin-resistant Staphylococcus aureus CCARM 3095 assessed as reduction in bacterial growth incubated for 24 hrs by CLSI based broth dilution method; format: functional; settings: read-out: MIC100
Escherichia coli [34] = assay: Antibacterial activity against Escherichia coli KCTC 1682 assessed as reduction in bacterial growth incubated for 24 hrs by CLSI based broth dilution method; format: functional; settings: read-out: MIC100
Pseudomonas aeruginosa = assay: Antibacterial activity against Pseudomonas aeruginosa KCTC 1637 assessed as reduction in bacterial growth incubated for 24 hrs by CLSI based broth dilution method; format: functional; settings: read-out: MIC100
Salmonella typhimurium = assay: Antibacterial activity against Salmonella typhimurium KCTC 1926 assessed as reduction in bacterial growth incubated for 24 hrs by CLSI based broth dilution method; format: functional, Salmonella enterica subsp. enterica serovar Typhimurium; settings: Salmonella enterica, read-out: MIC100
[35] = Retention time of the compound by RP-HPLC method; format: physicochemical
RAW264.7 [36] = assay: Antiinflammatory activity against mouse RAW264.7 cells assessed as reduction in LPS-induced nitrite level at 5 uM incubated for 24 hrs by Griess reagent based assay relative to control; format: functional
RAW264.7 [37] = assay: Antiinflammatory activity against mouse RAW264.7 cells assessed as reduction in LPS-induced TNFalpha level at 10 uM incubated for 24 hrs by […] relative to control; format: functional
Lipopolysaccharide (LPS) [38] = assay: Inhibition of Escherichia coli O111:B4 LPS aggregation assessed as increase in FITC-LPS dissociation at 2 uM by spectrofluorometry

Molecule	cytotoxicity at 24 h, 20 µM [6] [%]	MIC (Enterococcus faecium) [µM]	MIC [10] [µM]	MIC [11] [µM]	MIC (Candida albicans [12]) [µM]	MIC (Candida albicans [13]) [µM]	HC10 (Erythrocyte [14]) [µM]	MIC (Bacteria [15]) [µM]	MIC (Bacteria [16]) [µM]	MIC (Saccharomyces cerevisiae) [µM]	selectivity ratio [17]	selectivity ratio [18]	selectivity ratio [19]	Activity (Erythrocyte [24])	cytotoxicity at 24 h, 20 µM [28] [%]	MIC (Staphylococcus aureus [29]) [µM]	MIC [30] [µM]	MIC (Bacillus subtilis) [µM]	MIC (Staphylococcus aureus [31]) [µM]	MIC (Staphylococcus aureus [32]) [µM]	further results
O=C(N[C@H](CO)[C@H](O)c1ccc([N+](=O)[O-])cc1)C(Cl)Cl																					Activity (Escherichia coli [1]): inactive; Activity (Escherichia coli [2]): Active
CC[C@H](C)CCCCC(=O)N[C@@H](CCN)C(=O)N[C@H](C(=O)N[C@@H](CCN)C(=O)N[C@H]1CCNC(=O)[C@H]([C@@H](C)O)NC(=O)[C@H](CCN)NC(=O)[C@H](CCN)NC(=O)[C@H](CC(C)C)NC(=O)[C@@H](Cc2ccccc2)NC(=O)[C@H](CCN)NC1=O)[C@@H](C)O (X1-[Dab]T[Dab][Dab][Dab][dF]L[Dab][Dab]T; lactam 4-C)																					inhibition (Lipopolysaccharide (LPS) [3]): inactive; Activity (RAW264.7 [4]): 23.97%; Activity (RAW264.7 [5]): 43.62%
CC[C@H](C)[C@H](NC(=O)CN)C(=O)NCC(=O)N[C@@H](C)C(=O)N[C@H](C(=O)N[C@@H](CC(C)C)C(=O)N[C@@H](CCCCN)C(=O)N[C@H](C(=O)N[C@@H](CC(C)C)C(=O)N[C@H](C(=O)N[C@H](C(=O)NCC(=O)N[C@@H](CC(C)C)C(=O)N1CCC[C@H]1C(=O)N[C@@H](C)C(=O)N[C@@H](CC(C)C)C(=O)N[C@H](C(=O)N[C@@H](CO)C(=O)N[C@@H](Cc1c[nH]c2ccccc12)C(=O)N[C@H](C(=O)N[C@@H](CCCCN)C(=O)N[C@@H](CCCNC(=N)N)C(=O)N[C@@H](CCCCN)C(=O)N[C@@H](CCCNC(=N)N)C(=O)N[C@@H](CCC(N)=O)C(=O)N[C@@H](CCC(N)=O)C(N)=O)[C@@H](C)CC)[C@@H](C)CC)[C@@H](C)O)[C@@H](C)O)C(C)C)C(C)C [MELITTIN]	< 10	16 (≈ 45.5 µg/mL)	32 (≈ 91.1 µg/mL)	32 (≈ 91.1 µg/mL)	16 (≈ 45.5 µg/mL)	16 (≈ 45.5 µg/mL)	1	16 (≈ 45.5 µg/mL)	17.2 (≈ 49 µg/mL)	16 (≈ 45.5 µg/mL)	0.1	0.1	0.1								Activity (NIH3T3 [7]): Toxic; Activity (RAW264.7 [8]): Toxic; Activity (NIH3T3 [9]): Toxic; Activity (Cell membrane [20]): Active; Activity (Cell membrane [21]): Active; Activity (Cell membrane [22]): Active; Activity (Cell membrane [23]): 71.9%
H-FWQLVPLAIKIYRAWKRR-NH2	< 10	32	32	32	16	16	1.3	20.5	20.8	16	0.1	0.1	0.1	Non-Toxic	< 10	8	16	8	32	16	hemolysis at 1 h, 64 µM [25]: 100%; cytotoxicity at 24 h, 10 µM [26]: 40%; cytotoxicity at 24 h, 10 µM [27]: 40%; MIC (Staphylococcus aureus [33]): 32 µM; MIC (Escherichia coli [34]): 16 µM; MIC (Pseudomonas aeruginosa): 16 µM; MIC (Salmonella typhimurium): 8 µM; Retention_time [35]: 29 min
H-KRFWQLVPLAIKIYRAWKRR-OH	< 10	16	16	16	8	16	5.1	11.4	12	12	0.4	0.4	0.4	Non-Toxic	< 10	8	8	8	16	16	hemolysis at 1 h, 64 µM [25]: 40%; cytotoxicity at 24 h, 10 µM [26]: 40%; cytotoxicity at 24 h, 10 µM [27]: 40%; MIC (Staphylococcus aureus [33]): 8 µM; MIC (Escherichia coli [34]): 8 µM; MIC (Pseudomonas aeruginosa): 16 µM; MIC (Salmonella typhimurium): 4 µM; Retention_time [35]: 26.8 min
H-LAIKIYRAWKRR-NH2	< 10	32	32	16	8	16	> 256	21.1	15.2	12	243	33.7	42.7	Non-Toxic	< 10	8	4	8	32	32	MIC (Staphylococcus aureus [33]): 32 µM; MIC (Escherichia coli [34]): 16 µM; MIC (Pseudomonas aeruginosa): 4 µM; MIC (Salmonella typhimurium): 8 µM; inhibition at 5 µM (RAW264.7 [36]): < 10%; inhibition at 10 µM (RAW264.7 [37]): < 10%; inhibition (Lipopolysaccharide (LPS) [38]): Active; Activity (RAW264.7 [4]): 59.24%; Activity (RAW264.7 [5]): 42.35%; Retention_time [35]: 16.4 min
